US20230122393A1, “STEROIDAL NITRONE F2 FOR USE IN THE PREVENTION AND/OR TREATMENT OF PERMANENT CEREBRAL ISCHAEMIA” (ISQUAEMIA BIOTECH, S.L., priority 2020, published 2023)
Entries after “also recorded” stand apart in the source; their conditions may differ.

Tests used:
[1] = test system: global cerebral ischemia; experiment: Y-maze spatial recognition or alternation test, long-term after global cerebral ischemia; conditions: i.v. at onset of reperfusion, before sacrifice at 11 weeks, vs healthy control
Description: (§1) In addition, animal behaviour was evaluated before sacrifice for the neurological evolution evaluation.
(§2) Animals were subjected to two behavioural tests for their neurological evaluation prior to sacrifice in order to assess the exploratory activity and spatial recognition and memory; the Y-maze paradigm was used to assess these functions. For the first test, the animal is positioned in the centre of the maze, allowing free exploration for 8 minutes. Exploratory activity is quantified and represented as an activity index. For the assessment of the spatial recognition and memory, the number of times the animals alternate among the three arms (triad number) is evaluated and quantified as an alternation index. Lower activity and/or alternation indexes are indications of reduced curiosity and spatial memory and consequently higher neurological deficit.

[2] = test system: primary neuronal cultures subjected to oxygen and glucose deprivation; conditions: reference [17]; cited from earlier work
[3] = test system: global cerebral ischemia; conditions: intraperitoneal at onset of reperfusion; reference [17]; cited from earlier work
[4] = test system: global cerebral ischemia; experiment: Therapeutic window of the neuroprotective effect in global cerebral ischemia; type: in vivo, rat
[5] = test system: transient focal cerebral ischemia (tMCAO); experiment: Grip strength test after transient middle cerebral artery occlusion (tMCAO); conditions: for grip strength: 24 hours after reperfusion, VEH 91.76±2.00
Description: Transient occlusion of a distal branch of the middle cerebral artery (tMCAO) was induced in male C57BL/6 mice (9-12-week-old, Charles River). […] Briefly, mice were anesthetized with 4% isoflurane for induction and 1.5-2% isoflurane for maintenance (in 79% N2/21% 02). After drilling a small hole on the temporal bone, the middle cerebral artery (MCA) was compressed for 60 min with a 30-G needle using a micromanipulator. During the surgery, body temperature was maintained at 37.0±0.5° C. using a homoeothermic blanket and CBF was monitored using laser-Doppler flowmetry to confirm MCA occlusion. Buprenorphine (0.05-0.1 mg/kg) was administered subcutaneously immediately before the procedure. […] Surgical inclusion criteria: a reduction in blood flow to <25% of baseline value during ischemia period, and a recovery of 75% of baseline value in the reperfusion period. […] The treatments were administered intraperitoneally at the onset of reperfusion period by an investigator blinded to the experimental condition.
Motor functional test was performed at 1 day before surgery and 24 h and 48 h after tMCAO to evaluate ischemic outcomes and monitor motor function by a blinded researcher to experimental conditions. […] A total of 6 trials were conducted for each test and the strength value was calculated as the mean of them.

[6] = test system: global cerebral ischemia; experiment: Neurological deficit score (NDS), therapy window study in global cerebral ischemia; conditions: 5 d
Description: Animal model of global cerebral ischemia, experimental design and administration of nitrones. Transient forebrain ischemia was induced in adult male Wistar rats (10-12 weeks, Charles River) by the standard four-vessel occlusion model (4V0) previously described. Briefly, both vertebral arteries were irreversibly occluded by electrocoagulation under anaesthesia with a mixture of atropine, ketamine and diazepam (0.25, 62.5, and 5 mg/kg, respectively) administered by intraperitoneal injection. After 24 h, ischemia was induced by carotid occlusion with atraumatic clips for 15 min and then clips were removed from the carotid arteries to allow reperfusion. Body temperature of 37° C. was maintained. Animals were studied at 5 days after reperfusion (R5d). […] Vehicle-treated control animals were handled in the same way as treated animals.
Evaluation of neurological deficits. Neurological deficits in rats subjected to global cerebral ischemia were blindly evaluated using a scale previously described (Ayuso et al. 2015 J. Med. Chem. 58, 6704-6709; 10.1021/acs.jmedchem.5b00755). […]
Animals were subjected to a functional test before sacrifice in order to quantify their potential disability. […]
The variables quantified to evaluate de neuroprotection of NXY-059, including neurological deficit score (NDS) and neuronal death and apoptosis in brain sections, were performed as described in Example 3. […]

[7] = test system: transient forebrain ischemia (global cerebral ischemia); experiment: Dose-response of neuroprotection (Fluoro-Jade B and TUNEL) in transitory global cerebral ischemia, four-vessel occlusion; conditions: for half effective concentration: i.v. at onset of reperfusion; for half effective concentration / maximal effect (percentage of neuroprotection): 5 days of reperfusion
Description: Animal model of global cerebral ischemia, experimental design and administration of nitrones. Transient forebrain ischemia was induced in adult male Wistar rats (10-12 weeks, Charles River) by the standard four-vessel occlusion model (4V0) previously described. Briefly, both vertebral arteries were irreversibly occluded by electrocoagulation under anaesthesia with a mixture of atropine, ketamine and diazepam (0.25, 62.5, and 5 mg/kg, respectively) administered by intraperitoneal injection. After 24 h, ischemia was induced by carotid occlusion with atraumatic clips for 15 min and then clips were removed from the carotid arteries to allow reperfusion. Body temperature of 37° C. was maintained. Animals were studied at 5 days after reperfusion (R5d). […] The treatments were performed with allocation concealment, assigning a random order to each vehicle or treated animal by a computer-generated randomization program. Ischemic animals were treated with nitrone F2 diluted in 10% ethanol in saline as vehicle by intravenous injection in the tail when the carotid arteries were unclamped for reperfusion. Vehicle-treated control animals were handled in the same way as treated animals. An independent investigator prepared the treatments for each animal according to the randomization schedule.
(§3) Brain sections. After 5 days after reperfusion, R5d animals were killed by transcardiac perfusion performed under deep anaesthesia. Perfusion via left ventricle was started with a washout of 200 mL of 0.9% NaCl, and the brains, following perfusion and fixation with 4% (w/v) paraformaldehyde solution in PBS, were removed and postfixed in the same solution overnight at 4° C. Brains were washed sequentially with 10, 20 and 30% (w/v) saccharose in PBS, embedded in Tissue-Tek O.C.T. (Sakura Finetek) and frozen at −80° C. prior to cryostat sectioning. Brain coronal sections containing the hippocampus were prepared at the level of interaural +5.7±0.2 mm on Real Capillary Gap microscope slides (Dako).
(§4) Neuronal death evaluation. Neuronal death was evaluated by Fluoro-Jade-B staining. Brain cryosections (10 μm thick) from ischemic animals that underwent reperfusion for 5 days were used after fixation to detect neuronal death by Fluoro-Jade-B staining (Ayuso et al. 2015 J. Med. Chem. 58, 6704-6709; 10.1021/acs.jmedchem.5b00755) and visualized by fluorescence microscopy. Labelled (dead) neuronal cells (in green) were counted as in TUNEL assay (see below). Data from different animals of each experimental group were independently analysed by two observers, and treatment information was blindly performed throughout the study.
TUNEL assay. Apoptotic neurons within brain sections were detected using the Terminal deoxynucleotidyl transferase-mediated dUTP Nick-End Labeling (TUNEL) assay (Promega). For this test, 5-μm-thick coronal cryostat brain sections containing the dorsal hippocampal formation were obtained as described above and post-fixed with 4% formaldehyde in PBS for 5 min at room temperature. After washing in PBS for three times, sections were permeabilized with 0.1 M sodium citrate, pH 6.0, for 1 min at 95° C., quickly cooled in ice and washed in PBS for 5 min at room temperature. Then, brain sections were incubated with blocking solution (0.1 M Tris-HCl, pH 7.5, 3% bovine serum albumin and 20% fetal bovine serum), washed in PBS for 5 min, and post-fixed with 4% formaldehyde in PBS for 5 min.

[8] = test system: global cerebral ischemia, hippocampal CA1 and cortical regions; experiment: Neuronal death by Fluoro-Jade B staining, therapy window study in global cerebral ischemia; conditions: 5 d
Description: Animal model of global cerebral ischemia, experimental design and administration of nitrones. Transient forebrain ischemia was induced in adult male Wistar rats (10-12 weeks, Charles River) by the standard four-vessel occlusion model (4V0) previously described. Briefly, both vertebral arteries were irreversibly occluded by electrocoagulation under anaesthesia with a mixture of atropine, ketamine and diazepam (0.25, 62.5, and 5 mg/kg, respectively) administered by intraperitoneal injection. After 24 h, ischemia was induced by carotid occlusion with atraumatic clips for 15 min and then clips were removed from the carotid arteries to allow reperfusion. Body temperature of 37° C. was maintained. Animals were studied at 5 days after reperfusion (R5d). […] Ischemic animals were treated with nitrone F2 diluted in 10% ethanol in saline as vehicle by intravenous injection in the tail when the carotid arteries were unclamped for reperfusion. Vehicle-treated control animals were handled in the same way as treated animals.
After 5 days after reperfusion, R5d animals were killed by transcardiac perfusion performed under deep anaesthesia. Perfusion via left ventricle was started with a washout of 200 mL of 0.9% NaCl, and the brains, following perfusion and fixation with 4% (w/v) paraformaldehyde solution in PBS, were removed and postfixed in the same solution overnight at 4° C. Brains were washed sequentially with 10, 20 and 30% (w/v) saccharose in PBS, embedded in Tissue-Tek O.C.T. (Sakura Finetek) and frozen at −80° C. prior to cryostat sectioning. Brain coronal sections containing the hippocampus were prepared at the level of interaural +5.7±0.2 mm on Real Capillary Gap microscope slides (Dako).
as §4
Analysis of results included neuronal damage and death, and a functional test to which the animals were subjected prior to sacrifice. All the results were obtained 5d after post-ischemic reperfusion in a model of global cerebral ischemia.

[9] = test system: global cerebral ischemia, hippocampal CA1 and cortical regions; experiment: Neuronal apoptosis by TUNEL assay, therapy window study in global cerebral ischemia; conditions: 5 d
Description: Animal model of global cerebral ischemia, experimental design and administration of nitrones. Transient forebrain ischemia was induced in adult male Wistar rats (10-12 weeks, Charles River) by the standard four-vessel occlusion model (4V0) previously described. Briefly, both vertebral arteries were irreversibly occluded by electrocoagulation under anaesthesia with a mixture of atropine, ketamine and diazepam (0.25, 62.5, and 5 mg/kg, respectively) administered by intraperitoneal injection. After 24 h, ischemia was induced by carotid occlusion with atraumatic clips for 15 min and then clips were removed from the carotid arteries to allow reperfusion. Body temperature of 37° C. was maintained. Animals were studied at 5 days after reperfusion (R5d). […] The treatments were performed with allocation concealment, assigning a random order to each vehicle or treated animal by a computer-generated randomization program. […] Vehicle-treated control animals were handled in the same way as treated animals. An independent investigator prepared the treatments for each animal according to the randomization schedule.
as §3
TUNEL assay. Apoptotic neurons within brain sections were detected using the Terminal deoxynucleotidyl transferase-mediated dUTP Nick-End Labeling (TUNEL) assay (Promega). For this test, 5-μm-thick coronal cryostat brain sections containing the dorsal hippocampal formation were obtained as described above and post-fixed with 4% formaldehyde in PBS for 5 min at room temperature. After washing in PBS for three times, sections were permeabilized with 0.1 M sodium citrate, pH 6.0, for 1 min at 95° C., quickly cooled in ice and washed in PBS for 5 min at room temperature. Then, brain sections were incubated with blocking solution (0.1 M Tris-HCl, pH 7.5, 3% bovine serum albumin and 20% fetal bovine serum), washed in PBS for 5 min, and post-fixed with 4% formaldehyde in PBS for 5 min. […]
The hippocampal CA1 subfield and cerebral and lateral cortex fields from a given section were analysed with fluorescence microscopy (40× objective) to count the number of apoptotic nuclei (green).

[10] = test system: global cerebral ischemia, hippocampal CA1 region; experiment: Long-term viable neurons (S6-positive cells) in hippocampal CA1 11 weeks after global cerebral ischemia; conditions: i.v. at onset of reperfusion; 11 weeks (77 days) after reperfusion
Description: Animal model of global cerebral ischemia, experimental design and administration of nitrones. Transient forebrain ischemia was induced in adult male Wistar rats (10-12 weeks, Charles River) by the standard four-vessel occlusion model (4V0) previously described. Briefly, both vertebral arteries were irreversibly occluded by electrocoagulation under anaesthesia with a mixture of atropine, ketamine and diazepam (0.25, 62.5, and 5 mg/kg, respectively) administered by intraperitoneal injection. After 24 h, ischemia was induced by carotid occlusion with atraumatic clips for 15 min and then clips were removed from the carotid arteries to allow reperfusion. Body temperature of 37° C. was maintained. Animals were studied at 5 days after reperfusion (R5d). A power analysis was performed (http://www.biomath.info/power/ttest.htm) to determine the sample size. The level of statistical significance was fixed at 0.05, the power set at 0.8 (80%), and the sample size obtained was <6 subjects per group. The treatments were performed with allocation concealment, assigning a random order to each vehicle or treated animal by a computer-generated randomization program. […]
Because of this, a new experimental strategy had to be used, based on the staining of viable neurons and its quantification in the areas of the brain more vulnerable to the ischemic episodes such as the hippocampal CA1 region. […]

[11] = test system: transient focal cerebral ischemia (tMCAO); experiment: Infarct volume by TTC staining after tMCAO; type: in vivo, mice; conditions: 48 h; for infarct volume (as percentages): VEH 19.15±1.08
[12] = test system: permanent focal cerebral ischemia (pMCAO); experiment: Somatosensory evoked potentials after permanent MCA occlusion (pMCAO); conditions: F2 0.1 mg/kg i.p. at 2 and 12 h; 72 hours post-stroke and during total time of study (3 weeks)
Description: Evaluation of functional brain territory in stroke mice with pMCAO and treated with F2. (A) Representative somatosensory evoked contralateral potentials recorded before and 72 hours post-stroke in treated (F2) and non-treated (vehicle, control) mice. F2 was administered at 2 and 12 hours after MCA ligation. […] In both groups, the electrical stimulus was twice the current level necessary to obtain a supramaximal motor response, typically 1-2 mA. (B) Amplitude of evoked activity in the somatosensory cortex (forepaw sensory field) in the infarcted (left panel) and non-infarcted (right panel) hemispheres of non-treated (vehicle) and treated (F2) mice over time after stroke. […] Data are presented as the means ±SEM. For every time point analysed, the black asterisks denote significant differences between non-treated (vehicle) and treated (F2) mice (two-way ANOVA followed by Tukey's test; *p<0.05, **p<0.05).
Ipsilateral activity in stroke mice with pMCAO and treated with F2. […] (C) Amplitude of somatosensory evoked activity (forepaw sensory field) in the non-damaged hemisphere of non-treated (vehicle) and treated (F2) mice over time after stroke and F2 or vehicle administration.
Here, the neuroprotective efficacy of this nitrone has been assayed in a model of permanent focal cerebral ischemia in mice. […]

[13] = test system: SOD1; experiment: SOD1 protein levels by western blot in primary neuronal cultures subjected to OGD and recovery
Description: Primary Neuronal Cultures. […] Cell suspensions from cerebral cortex were prepared from 16- to 17-day-old Sprague-Dawley rat embryos. Living cells in cell suspension were counted by trypan blue exclusion method. Cells were seeded on plastic multidishes precoated with 0.05 mg/mL poly-D-lysine at a density of 2.5×10^5 cells/cm2 and were kept at 37° C. in a 6.5% CO2 atmosphere in high glucose Dulbecco's medium supplemented with 15% heat-inactivated (56° C. for 30 min) foetal calf serum. […]
Exposure of Cell Cultures to Oxygen—Glucose Deprivation. […] F2 were analysed independently from 4 to 8 times with different batches of cultures, and each experiment was run in quadruplicate.
35-50 μg of protein cell extracts was resolved in 10 or 12% SDS-PAGE and blotted into a polyvinylidene difluoride (PVDF) membrane (GE Healthcare). […] Then, membranes were incubated with horseradish peroxidase-conjugated secondary antibodies for 1 h, developed with the ECL-Clarity (Bio-Rad) or Prime systems (GE Healthcare) and detected in a ChemiDoc imager (Bio-Rad).
The images were quantified using the quantification software ImageLab and Quantity One (Bio-Rad Laboratories). The protein levels were expressed as intensities in arbitrary units (AU).

[14] = test system: global cerebral ischemia; experiment: Y-maze exploration activity test, long-term after global cerebral ischemia; conditions: i.v. at onset of reperfusion, before sacrifice at 11 weeks, vs healthy control
Description: as §1, §2

[15] = test system: permanent focal cerebral ischemia (pMCAO); experiment: Infarct area/volume by TTC staining after permanent MCA occlusion (pMCAO); type: in vivo, mice; conditions: F2 0.1 mg/kg i.p. at 2 and 12 hours after MCA occlusion
[16] = test system: lipid peroxidation and ROS levels; conditions: preliminary results, reference [17]; cited from earlier work
[17] = F2 0.05 mg/kg i.v. 48 h after reperfusion

Compound: CC(C)CCC[C@@H](C)[C@H]1CC[C@H]2[C@@H]3CCC4=C/C(=[N+](\C)[O-])CC[C@]4(C)[C@H]3CC[C@]12C [F2, (E)-N-((8S,9S,10R,13R,14S,17R)-10,13-dimethyl-17-((R)-6-methylheptan-2-yl)-7,8,9,11,12,13,14,15,16,17-decahydro-1H-cyclopenta[a]phenanthren-3(2H,6H,10H)-ylidene)methanamine oxide]
- alternation index (spatial recognition test, Y-maze) [1]: no significant differences when compared to the scores of the control group
- neuroprotective effect (cell viability) after OGD [2]: good neuroprotective effect in the micromolar range
- neuronal death and apoptosis in hippocampus and cortex [3]: decreased neuronal death and apoptosis
- administration time of maximum neuroprotective effect after reperfusion onset ([4]; F2 0.05 mg/kg i.v.): 0 to 3 h
- therapeutic window of neuroprotective effect, time after onset of reperfusion ([4]; F2 0.05 mg/kg i.v.): ≤ 6 h
- grip strength ([5]; 0.05 mg/kg F2 i.p. at onset of reperfusion): 110.2±5.14 grams
- grip strength ([5]; 0.1 mg/kg F2 i.p. at onset of reperfusion): 113.2±5.35 grams
- grip strength values vs vehicle ([5]; F2 0.05 or 0.1 mg/kg at onset of reperfusion, 24 h and 48 h after reperfusion): improved grip strength values
- neurological deficit score (NDS) vs vehicle [6, 17]: did not improve the NDS
- half effective concentration ([7]; cerebral cortex): 0.015 mg/kg
- maximal effect (percentage of neuroprotection) ([7]; cerebral cortex, reached at 0.05 mg/kg i.v. at onset of reperfusion): 81%
- most effective dose in decreasing neuronal death and apoptosis ([7]; doses 0.01-0.1 mg/kg i.v., 5 days after reperfusion): 0.05 mg/kg
- maximal effect (percentage of neuroprotection) ([7]; hippocampal region CA1, at 0.05 mg/kg i.v. at onset of reperfusion): 35%
- half effective concentration ([7]; hippocampal region CA1): 0.025 mg/kg
- neuronal death (Fluoro-Jade B) vs vehicle [8, 17]: did not afford a significant decrease in the neuronal damage
- neuronal death (Fluoro-Jade B) vs vehicle ([8]; F2 0.05 mg/kg i.v. between 0 and 6 h after reperfusion, CA1 and cortex): significantly decreased neuronal death
- neuronal apoptosis (TUNEL) vs vehicle ([9]; F2 0.05 mg/kg i.v. at 6 h after reperfusion): significant in both hippocampus and cerebral cortex
- neuronal apoptosis (TUNEL) vs vehicle ([9]; F2 0.05 mg/kg i.v. at 48 h after reperfusion): did not afford a significant decrease in the apoptosis
- neuronal apoptosis (TUNEL) vs vehicle ([9]; F2 0.05 mg/kg i.v., maximum effect at 0-3 hours after onset of reperfusion): significant reduction of apoptosis
- viable neurons (S6-positive cells) in hippocampal CA1 [10]: significantly preserves neuronal viability
- decrease of infarct volume respect to NXY059 ([11]; 0.1 mg/kg F2, p<0.05): 20.27%
- decrease of infarct volume respect to control VEH ([11]; 0.1 mg/kg F2, p<0.05): 15.20%
- infarct volume (as percentages) ([11]; F2 0.1 mg/kg i.p. at onset of reperfusion): 16.24±0.85%
- somatosensory evoked cortical response, damaged hemisphere (right) [12]: preserved cortical response
- SOD1 levels ([13]; 5 μM F2, 2 h after OGD, vs untreated and control groups): significant increase of SOD1 levels
- enhancement of the SOD1 increase caused by OGD alone ([13]; 5 μM F2, 24 h after OGD): 15%
- activity index (exploration activity test, Y-maze) [14]: activity scores that were equivalent to those observed in the control group
- infarct volume vs vehicle [15]: significantly reduces infarct volume
- infarcted area (TTC staining) vs non-treated ([15]; 48 hours): lower infarcted area
- lipid peroxidation and ROS levels [16]: both decreased

Compound: CC(C)(C)[N+]([O-])=Cc1ccc(S(=O)(=O)[O-])cc1S(=O)(=O)[O-].[Na+].[Na+] [NXY-059, reference compound]
- alternation index (spatial recognition test, Y-maze) [1]: no significant differences when compared to the scores of the control group
- therapeutic window ([4]; NXY-059 40 mg/kg i.v., compared to F2): narrow therapeutic window compared to F2
- neurological deficit score (NDS) vs vehicle ([6]; NXY-059 40 mg/kg i.v. 0-48 h after reperfusion): did not improve the NDS
- neuronal death (Fluoro-Jade B) ([8]; NXY-059 40 mg/kg i.v. 1-48 h after reperfusion): did not induce a decrease in neuronal damage
- neuronal death (Fluoro-Jade B) ([8]; NXY-059 40 mg/kg i.v. at reperfusion onset (0 h), 40 mg/kg): lower neuroprotective effect; also recorded: only induced a significant decrease of neuronal damage administered at the onset of the reperfusion
- neuronal apoptosis (TUNEL) vs vehicle ([9]; NXY-059 40 mg/kg i.v. between 0 and 48 h after reperfusion): did not afford a significant decrease in the neuronal apoptosis
- viable neurons (S6-positive cells) in hippocampal CA1 [10]: did not recover the damage observed
- infarct volume (as percentages) ([11]; NXY-059 40.0 mg/kg i.p. at onset of reperfusion): 20.37±0.93%
- activity index (exploration activity test, Y-maze) [14]: neurological deficit was similar to the one obtained for VEH
